Our source for the TGI and GI50 values is PubChem BioAssay (NCI).

Values joined by “and” are separate entries in the source; they are usually repeats but may differ in a detail not shown here. Identical values can stand only once.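 Compound exposure: 48 hours, 5 concentrations, 96-well plates. GI50 = concentration required for 50% inhibition of growth. TGI: concentration producing complete growth inhibition.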

Some test systems named below: M14 melanoma; NCI-H23 lung; SF-268 CNS; SF-539 CNS; SK-MEL-5 melanoma; SK-OV-3 ovarian; U251 CNS; HL-60(TB) leukemia; MOLT-4 leukemia; RXF 393 renal.
Common to all, as to test: inhibition of tumour cell growth, NCI panel, 48 h

Regarding `CN(C)C(=S)N/N=C\C=N/NC(=S)N(C)C`, the TGI was 3.22 µM in the assay with M14 melanoma; over 58.8 µM in the assay with NCI-H23 lung; over 20.2 µM in the assay with SF-268 CNS; over 100 µM with SF-539 CNS; over 100 µM in the assay on SK-MEL-5 melanoma; over 100 µM in the assay on SK-OV-3 ovarian. The compound also yielded a TGI with U251 CNS of over 100 µM.

Regarding `O=c1[nH]nc(Cc2ccccc2)n1/N=C/c1c[nH]c2ccccc12`, the TGI with HL-60(TB) leukemia is over 100 µM; in the assay with M14 melanoma it was over 100 µM; in the assay with MOLT-4 leukemia it was over 100 µM; in the assay with NCI-H23 lung, over 100 µM; with SF-268 CNS, 88.1 µM; in the assay on SF-539 CNS, over 100 µM. The TGI with SK-MEL-5 melanoma, in the assay on SK-OV-3 ovarian and in the assay with U251 CNS was over 100 µM each time.

As for `Cc1ccc(C(=O)N(C2CCCCC2)C2CCCCC2)cc1N=NN(C)C`, the TGI amounted to 23.7 µM in the assay with HL-60(TB) leukemia; 32.6 µM in the assay with M14 melanoma; 76.7 µM with MOLT-4 leukemia; 27.9 µM in the assay on NCI-H23 lung; 27.7 µM in the assay on SF-268 CNS; 37.2 µM in the assay on SF-539 CNS. For the same compound, the TGI was 28.1 µM in the assay with SK-MEL-5 melanoma, 33.5 µM in the assay on SK-OV-3 ovarian and 34.1 µM in the assay on U251 CNS.

As to `CC(=O)OC[C@H]1O[C@@H](O[C@H]2[C@H](OC(C)=O)C=CO[C@@H]2COC(C)=O)C(OC(C)=O)[C@H]2OC(C)(C)O[C@H]21` (stereo partly drawn), the TGI in the assay on M14 melanoma, in the assay with MOLT-4 leukemia, in the assay on NCI-H23 lung, in the assay on RXF 393 renal, in the assay on SF-268 CNS and in the assay on SF-539 CNS was over 100 µM throughout. Besides, the TGI in the assay on SK-MEL-5 melanoma, in the assay on SK-OV-3 ovarian and with U251 CNS was over 100 µM throughout.

With `Brc1ccc(N=NN2CCCCC2)cc1`, the TGI with M14 melanoma was over 100 µM; with MOLT-4 leukemia, 46.2 µM; with NCI-H23 lung, over 100 µM; in the assay with RXF 393 renal, over 100 µM; with SF-268 CNS, over 100 µM; with SF-539 CNS it was over 100 µM. Also, the TGI in the assay on SK-MEL-5 melanoma, in the assay on SK-OV-3 ovarian and with U251 CNS was over 100 µM in each case.

With `OC(C1CCC=NN1C(O)(C(F)(F)F)C(F)(F)F)(C(F)(F)F)C(F)(F)F` (stereo not drawn), the TGI in the assay with M14 melanoma, in the assay on MOLT-4 leukemia, in the assay with NCI-H23 lung, with RXF 393 renal, in the assay with SF-268 CNS and with SF-539 CNS was over 10 µM each time. For the same compound, the TGI with SK-MEL-5 melanoma, with SK-OV-3 ovarian and with U251 CNS was over 10 µM each time.

Consider `COc1ccc(N2C=Nn3c(nc4sc(C)c(C)c4c3=O)C2)cc1`, for which the TGI in the assay with M14 melanoma, with MOLT-4 leukemia, in the assay with NCI-H23 lung, in the assay on RXF 393 renal, with SF-268 CNS and with SK-MEL-5 melanoma was over 100 µM in each case. Further, the TGI with SK-OV-3 ovarian and with U251 CNS was over 100 µM each time.

Take `CCC1C(=O)C[C@H]2[C@@H]3C(O)CC4=CC(=O)CC[C@]4(C)[C@H]3CC[C@]12C` (stereo partly drawn): the TGI in the assay on HL-60(TB) leukemia, in the assay with M14 melanoma, with MOLT-4 leukemia, in the assay with NCI-H23 lung, in the assay with SF-268 CNS and in the assay on SF-539 CNS was over 50 µM throughout. Also, the TGI in the assay with SK-MEL-5 melanoma, in the assay on SK-OV-3 ovarian and in the assay on U251 CNS was over 50 µM throughout.

`CC1=NOC2(C1)/C(=N/O)CCC/C2=N\O` (stereo not drawn): the TGI in the assay on M14 melanoma, with MOLT-4 leukemia, with NCI-H23 lung, in the assay on RXF 393 renal, in the assay on SF-268 CNS and with SF-539 CNS was over 100 µM in each case. The TGI in the assay with SK-MEL-5 melanoma, in the assay with SK-OV-3 ovarian and in the assay on U251 CNS was over 100 µM in each case.

Take `Cc1cnoc1NC1=CC(=O)C(=O)c2ccccc21`: the TGI is over 100 µM in the assay with M14 melanoma; 38.8 µM in the assay on MOLT-4 leukemia; 32.7 µM in the assay with NCI-H23 lung; 94.3 µM with SF-268 CNS; 58.2 µM in the assay on SF-539 CNS; 12 µM in the assay with SK-MEL-5 melanoma. The TGI is over 100 µM with SK-OV-3 ovarian and 13.9 µM with U251 CNS.

With `CC1(C)OC2OC(COC(=O)C=[N+]=[N-])C3OC(C)(C)OC3C2O1` (stereo not drawn), the TGI in the assay on HL-60(TB) leukemia, with NCI-H23 lung, in the assay on RXF 393 renal, with SF-268 CNS, with SK-MEL-5 melanoma and in the assay with SK-OV-3 ovarian was over 100 µM in each case. In the assay with U251 CNS, this compound registered a TGI of over 100 µM.

As for `O=C1C(Br)=CC2([N+](=O)[O-])CCNc3c(O)c4c5c(c3C2=C1Br)=NCCC=5C=N4` (stereo not drawn), the TGI in the assay with HL-60(TB) leukemia turned out to be 0.454 µM; with NCI-H23 lung, 3.41 µM; in the assay with RXF 393 renal it was 7.76 µM; in the assay with SF-268 CNS, 6.27 µM; with SF-539 CNS it was 4.55 µM; with SK-MEL-5 melanoma, 1.33 µM. The TGI is 13.3 µM with SK-OV-3 ovarian and 3.96 µM with U251 CNS.

Turning to `S=C1c2ccccc2NC(=NC2CCCC2)C2CSCN12` (stereo not drawn), the TGI in the assay with M14 melanoma, with MOLT-4 leukemia, in the assay with RXF 393 renal, in the assay with SF-268 CNS, with SK-MEL-5 melanoma and with SK-OV-3 ovarian was over 100 µM throughout. In addition, the TGI in the assay with U251 CNS is over 100 µM.

Turning to `CC(C)C[C@H](NC(=O)[C@H](Cc1cccc2ccccc12)NC(=O)N1CCOCC1)B(O)O`, the GI50 with M14 melanoma was 0.000443 µM; in the assay with MOLT-4 leukemia, 0.000339 µM; with NCI-H23 lung it was 0.00188 µM; with SF-268 CNS it was 0.000925 µM; in the assay on SF-539 CNS, 0.000154 µM; with SK-OV-3 ovarian, 0.226 µM. Besides, the GI50 with U251 CNS is 0.00196 µM. The TGI in the assay with M14 melanoma is 0.00154 µM and < 0.0125 µM; in the assay on NCI-H23 lung, 0.0076 µM; with RXF 393 renal, 0.00195 µM; in the assay with SF-268 CNS it was 0.00328 µM; in the assay with SF-539 CNS, 0.00032 µM; in the assay on SK-MEL-5 melanoma, 0.00237 µM. In addition, the TGI in the assay on SK-OV-3 ovarian is over 100 µM; in the assay with U251 CNS, 0.0245 µM and 0.0429 µM.
